Experimental data from paper PMC9250534, “Synthesis and direct assay of large macrocycle diversities by combinatorial late-stage modification at picomole scale” (Nature Communications, 2022).
Numbered stars: 1 amine (or outer) side, 2 acyl side, 3 side chain; on linkers, the order of the positions; unused ones are H or OH. Bridge positions count the residues as written; N and C are the ends. Square brackets hold non-standard residues; d marks the D form. Peptide text beside a SMILES is read from it. * marks the point of attachment. 2Thenoyl(5-Cl) = O=C(c1ccc(Cl)s1)*; Cysteamide = C(CS[*:3])N[*:1]; dDap = NC[C@@H](N)C(=O)O; Mpa = O=C(O)CCS

Target: T1, thrombin (Homo sapiens, UniProt P00734)
T1 construct: consists of two polypeptide chains of 36 (light chain) and 259 amino acid
Assay: Thrombin inhibition screen of crude macrocycle reactions (residual thrombin activity, fluorogenic substrate Z-Gly-Gly-Arg-AMC)
Format: biochemical
Conditions: 10 µM macrocycle concentration, macrocycles containing acid 14, crude reaction; for % thrombin activity, Repeat screen: replicate reaction and screen
How it was run: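 Each crude macrocycle (10 μM) was preincubated 10 min at room temperature with thrombin (2 nM final) in Tris-Cl pH 7.4 containing NaCl, MgCl2, CaCl2, 0.1% BSA, 0.01% Triton X-100 and 0.6% DMSO. Z-Gly-Gly-Arg-AMC (50 μM final) was then added. Inhibition came from fluorescence slopes relative to DMSO-only controls.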

Row | Structure (SMILES) | % thrombin activity, Original screen [%] | % thrombin activity, Repeat screen [%]
1 | NC(=O)CCC1NC(=O)C2CCCN(C2)C(=O)C(CNC(=O)c2ccc(Cl)s2)NC(=O)CCSSCCNC1=O (stereo not drawn) [X D3 B4 Q] | 94.4 | 90.2
2 | O=C1CCSSCCNC(=O)[C@H](Cc2ccc(O)cc2)NC(=O)C2(CC2)CNC(=O)[C@H](CNC(=O)c2ccc(Cl)s2)N1 [X D3 B6 Y] | 70.6 | 70.5
3 | CC[C@H](C)[C@@H]1NC(=O)[C@H](CNC(=O)c2ccc(Cl)s2)NC(=O)CCSSCCNC(=O)c2ccc(cc2)CNC1=O [X D3 I B3] | 87.6 | 88.8
4 | CC1NC(=O)C(CNC(=O)c2ccc(Cl)s2)NC(=O)CCSSCCNC(=O)c2cccc(c2)CNC1=O (stereo not drawn) [X D4 a B5] | 103.5 | 106.9
5 | CC(C)CC1NC(=O)C2CC(NC(=O)c3ccc(Cl)s3)CN2C(=O)CCSSCCNC(=O)C2CCCN(C2)C1=O (stereo not drawn) [X D5 L B4] | 94.2 | 89.4
6 | O=C1NCCSSCCC(=O)N2CC(NC(=O)c3ccc(Cl)s3)CC2C(=O)NC(CO)C(=O)NCc2ccc1cc2 (stereo not drawn) [X D5 s B3] | 92.6 | 101.4
7 | CC[C@H](C)[C@@H]1NC(=O)CCNC(=O)C2(CCN(C(=O)c3ccc(Cl)s3)CC2)NC(=O)CCSSCCNC1=O [X D6 B2 I] | 104.4 | 109.7
8 | CC1NC(=O)c2ccc(cc2)CNC(=O)C2(CCN(C(=O)c3ccc(Cl)s3)CC2)NC(=O)CCSSCCNC1=O (stereo not drawn) [X D6 B3 a] | 92.0 | 95.8

Now from value to compound:

Row | % thrombin activity, Original screen [%] | % thrombin activity, Repeat screen [%] | Structure (SMILES)
9 | 72.8 | 67.3 | NC(=O)CC[C@@H]1NC(=O)[C@H](CNC(=O)c2ccc(Cl)s2)NC(=O)CCSSCCNC(=O)C2(CC2)CNC1=O [X D3 Q B6]
10 | 101.5 | 109.4 | O=C1CCSSCCNC(=O)c2ccc(cc2)CNC(=O)[C@H](Cc2c[nH]c3ccccc23)NC(=O)[C@H](CNC(=O)c2ccc(Cl)s2)N1 [X D3 W B3]
11 | 78.6 | 75.2 | O=C1CCNC(=O)[C@@H](Cc2ccc(O)cc2)NC(=O)[C@H](CNC(=O)c2ccc(Cl)s2)NC(=O)CCSSCCN1 [X D3 y B2]
12 | 68.9 | 70.9 | O=C1CCSSCCNC(=O)[C@@H]2CCCN2C(=O)[C@@H](Cc2c[nH]c3ccccc23)NC(=O)[C@@H](CNC(=O)c2ccc(Cl)s2)N1 [X D4 w B1] ([Mpa][dDap](2Thenoyl(5-Cl))[dW]P-Cysteamide; disulfide 1-C)
13 | 90.8 | 96.7 | O=C1CCNC(=O)[C@@H](Cc2c[nH]c3ccccc23)NC(=O)[C@@H](CNC(=O)c2ccc(Cl)s2)NC(=O)CCSSCCN1 [X D4 w B2]
14 | 115.0 | 124.0 | O=C1CCNC(=O)C2CC(NC(=O)c3ccc(Cl)s3)CN2C(=O)CCSSCCNC(=O)C(CO)N1 (stereo not drawn) [X D5 B2 S]
15 | 114.0 | 116.8 | CC(C)CC1NC(=O)C2(CC2)CNC(=O)C2CC(NC(=O)c3ccc(Cl)s3)CN2C(=O)CCSSCCNC1=O (stereo not drawn) [X D5 B6 L]
16 | 110.6 | 115.5 | CC(C)CC1NC(=O)C2CC(NC(=O)c3ccc(Cl)s3)CN2C(=O)CCSSCCNC(=O)c2ccc(cc2)CNC1=O (stereo not drawn) [X D5 L B3]
17 | 94.5 | 101.1 | NC(=O)CCC1NC(=O)C2CC(NC(=O)c3ccc(Cl)s3)CN2C(=O)CCSSCCNC(=O)c2ccc(cc2)CNC1=O (stereo not drawn) [X D5 Q B3]
18 | 105.2 | 108.9 | CC(C)C[C@@H]1NC(=O)c2cccc(c2)CNC(=O)C2(CCN(C(=O)c3ccc(Cl)s3)CC2)NC(=O)CCSSCCNC1=O [X D6 B5 L]
